The source of these data is patent publication US7544701B2, “Sulfonyldihydrobenzimidazolone compounds as 5-hydroxytryptamine-6 ligands” (Wyeth, priority 2003, dated 2009).

In the experiment the target is T1, human cloned 5-HT6 receptors (Homo sapiens, UniProt P50406).
T1 construct: expressed in transfected cells; host or cells: Hela cells
T1 sequence (P50406 whole entry): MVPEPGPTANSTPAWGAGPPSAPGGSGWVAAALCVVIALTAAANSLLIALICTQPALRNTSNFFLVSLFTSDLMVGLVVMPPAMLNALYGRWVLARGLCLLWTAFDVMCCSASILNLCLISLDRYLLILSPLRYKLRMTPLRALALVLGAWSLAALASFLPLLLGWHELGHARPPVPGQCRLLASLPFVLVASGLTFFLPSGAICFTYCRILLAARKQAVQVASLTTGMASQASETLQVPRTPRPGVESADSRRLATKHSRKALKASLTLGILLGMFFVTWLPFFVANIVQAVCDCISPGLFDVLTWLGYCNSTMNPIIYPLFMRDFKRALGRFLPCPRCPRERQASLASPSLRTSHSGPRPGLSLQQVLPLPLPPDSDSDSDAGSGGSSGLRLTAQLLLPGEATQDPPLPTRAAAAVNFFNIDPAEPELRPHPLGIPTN
As to the kind of experiment: 5-HT6 binding affinity ([3H]-LSD displacement, membranes of Hela cells expressing human cloned 5-HT6 receptors). As to conditions: [3H]-LSD 3.0 nM, 120 min, room temperature, Hela cell membranes. The procedure:
The affinity of test compounds for the serotonin 5-HT6 receptor is evaluated in the following manner. Cultured Hela cells expressing human cloned 5-HT6 receptors are harvested and centrifuged at low speed (1,000×g) for 10.0 min to remove the culture media. The harvested cells are suspended in half volume of fresh physiological phosphate buffered saline solution and recentrifuged at the same speed. This operation is repeated. The collected cells are then homogenized in ten volumes of 50 mM Tris.HCl (pH 7.4) and 0.5 mM EDTA. The homogenate is centrifuged at 40,000×g for 30.0 min and the precipitate is collected. The obtained pellet is resuspended in 10 volumes of Tris.HCl buffer and recentrifuged at the same speed. The final pellet is suspended in a small volume of Tris.HCl buffer and the tissue protein content is determined in aliquots of 10-25 μl volumes. Bovine Serum Albumin is used as the standard in the protein determination according to the method described in Lowry et al., J. Biol. Chem., 193:265 (1951). The volume of the suspended cell membranes is adjusted to give a tissue protein concentration of 1.0 mg/ml of suspension. The prepared membrane suspension (10 times concentrated) is aliquoted in 1.0 ml volumes and stored at −70° C. until used in subsequent binding experiments.
Binding experiments are performed in a 96 well microtiter plate format, in a total volume of 200 μl. […] The test compounds are added in 20.0 μl volume.
The reaction is allowed to proceed in the dark for 120 min at room temperature, at which time, the bound ligand-receptor complex is filtered off on a 96 well unifilter with a Packard Filtermate® 196 Harvester. The bound complex caught on the filter disk is allowed to air dry and the radioactivity is measured in a Packard TopCount® equipped with six photomultiplier detectors, after the addition of 40.0 μl Microscint®-20 scintillant to each shallow well. The unifilter plate is heat-sealed and counted in a PackardTopCount® with a tritium efficiency of 31.0%.
Binding in the presence of varying concentrations of test compound is expressed as a percentage of specific binding in the absence of test compound. The results are plotted as log % bound versus log concentration of test compound. […] A linear regression line of data points is plotted, from which the IC50 value is determined and the Ki value is determined based upon the following equation: Ki=IC50/(1+L/KD) where L is the concentration of the radioactive ligand used and KD is the dissociation constant of the ligand for the receptor, both expressed in nM.
As to `O=c1n(C2=CCNCC2)c2ccccc2n1S(=O)(=O)c1cccc2nsnc12` [Example 55, 1-(2,1,3-benzothiadiazol-4-ylsulfonyl)-3-(1,2,3,6-tetrahydropyridin-4-yl)-1,3-dihydro-2H-benzimidazol-2-one], the affinity corresponds to a Ki of 12 nM.

Turning to `NCCn1c(=O)n(S(=O)(=O)c2ccc3ccccc3c2)c2ccccc21` [Example 19, 1-(2-aminoethyl)-3-(2-naphthylsulfonyl)-1,3-dihydro-2H-benzimidazol-2-one], the affinity, expressed as Ki, was 23 nM.

“1-[(2,6-dichloroimidazo[2,1-b][1,3]thiazol-5-yl)sulfonyl]-3-(1,2,3,6-tetrahydropyridin-4-yl)-1,3-dihydro-2H-benzimidazol-2-one [Example 50]”: the affinity corresponds to a Ki of 18 nM.

The molecule `O=c1n(C2CCNCC2)c2ccccc2n1S(=O)(=O)c1c(Cl)nc2sccn12` [Example 32, 1-[(6-chloroimidazo[2,1-b][1,3]thiazol-5-yl)sulfonyl]-3-piperidin-4-yl-1,3-dihydro-2H-benzimidazol-2-one] displayed a Ki of 46 nM.

`O=c1n(C2CCNCC2)c2ccccc2n1S(=O)(=O)c1c(Cl)nc2sc(Cl)cn12` [Example 33, 1-[(2,6-dichloroimidazo[2,1-b][1,3]thiazol-5-yl)sulfonyl]-3-piperidin-4-yl-1,3-dihydro-2H-benzimidazol-2-one]: the Ki is 23 nM.

For `CN(C)CCn1c(=O)n(S(=O)(=O)c2c(Cl)nc3sccn23)c2ccccc21` [Example 5, 1-[(6-chloroimidazo[2,1-b][1,3]thiazol-5-yl)sulfonyl]-3-[2-(dimethylamino)ethyl]-1,3-dihydro-2H-benzimidazol-2-one], the Ki came to 20 nM.

`Cc1noc(C)c1S(=O)(=O)n1c(=O)n(C2=CCNCC2)c2ccccc21` [Example 54, 1-[(3,5-dimethylisoxazol-4-yl)sulfonyl]-3-(1,2,3,6-tetrahydropyridin-4-yl)-1,3-dihydro-2H-benzimidazol-2-one] gave a Ki of 51 nM.

The molecule `Cc1nn(C)c(Cl)c1S(=O)(=O)n1c(=O)n(C2=CCNCC2)c2ccccc21` [Example 53, 1-[(5-chloro-1,3-dimethyl-1H-pyrazol-4-yl)sulfonyl]-3-(1,2,3,6-tetrahydropyridin-4-yl)-1,3-dihydro-2H-benzimidazol-2-one] yielded a Ki of 28 nM.

With `CN(C)CCn1c(=O)n(S(=O)(=O)c2ccc3ccccc3c2)c2ccccc21` [Example 6, 1-[2-(dimethylamino)ethyl]-3-(2-naphthylsulfonyl)-1,3-dihydro-2H-benzimidazol-2-one], the Ki came to 17 nM.

As for `O=c1n(C2CCNCC2)c2ccccc2n1S(=O)(=O)c1cccc2nsnc12` [Example 38, 1-[(2,1,3-benzothiadiazol-4-yl)sulfonyl]-3-piperidin-4-yl-1,3-dihydro-2H-benzimidazol-2-one], the affinity, expressed as Ki, was 45 nM.

The molecule `O=c1n(C2CCNCC2)c2ccccc2n1S(=O)(=O)c1cc(Cl)c(Cl)s1` [Example 25, 1-[(4,5-dichlorothien-2-yl)sulfonyl]-3-piperidin-4-yl-1,3-dihydro-2H-benzimidazol-2-one] registered a Ki of 32 nM.

On to `NCCn1c(=O)n(S(=O)(=O)c2ccc(Br)s2)c2ccccc21` [Example 20, 1-(2-aminoethyl)-3-[(5-bromothien-2-yl)sulfonyl]-1,3-dihydro-2H-benzimidazol-2-one], for which the affinity, expressed as Ki, was 26 nM.

`O=c1n(C2CCNCC2)c2ccccc2n1S(=O)(=O)c1cc(Cl)sc1Cl` [Example 26, 1-[(2,5-dichlorothien-3-yl)sulfonyl]-3-piperidin-4-yl-1,3-dihydro-2H-benzimidazol-2-one] gave a Ki of 34 nM.

In the case of `O=c1n(C2CCNCC2)c2ccccc2n1S(=O)(=O)c1c(Cl)sc(Cl)c1Br` [Example 30, 1-[(4-bromo-2,5-dichlorothien-3-yl)sulfonyl]-3-piperidin-4-yl-1,3-dihydro-2H-benzimidazol-2-one], the Ki amounted to 42 nM. The Ki values of the last two molecules are within 1.5-fold of each other.

Regarding `O=c1n(C2CCNCC2)c2ccccc2n1S(=O)(=O)c1c(Cl)nc2ccccn12` [Example 34, 1-[(2-chloroimidazo[1,2-a]pyridin-3-yl)sulfonyl]-3-piperidin-4-yl-1,3-dihydro-2H-benzimidazol-2-one], affinity was put at a Ki of 77 nM. This Ki lies about 1.8-fold higher than the previous one.

Turning to `NCCn1c(=O)n(S(=O)(=O)c2c(Cl)nc3sccn23)c2ccccc21` [Example 18, 1-(2-aminoethyl)-3-[(6-chloroimidazo[2,1-b][1,3]thiazol-5-yl)sulfonyl]-1,3-dihydro-2H-benzimidazol-2-one], the inhibition constant (Ki) came out at 6 nM.

As for `O=c1n(C2=CCNCC2)c2ccccc2n1S(=O)(=O)c1ccc(Cl)s1` [Example 40, 1-[(5-chlorothien-2-yl)sulfonyl]-3-(1,2,3,6-tetrahydropyridin-4-yl)-1,3-dihydro-2H-benzimidazol-2-one], the affinity corresponds to a Ki of 5 nM. The Ki values of the last two molecules are within 1.5-fold of each other.

The molecule `O=c1n(C2=CCNCC2)c2ccccc2n1S(=O)(=O)c1c(Cl)nc2sccn12` [Example 49, 1-[(6-chloroimidazo[2,1-b][1,3]thiazol-5-yl)sulfonyl]-3-(1,2,3,6-tetrahydropyridin-4-yl)-1,3-dihydro-2H-benzimidazol-2-one] registered a Ki of 2 nM.

Consider `O=c1n(C2CCNCC2)c2ccccc2n1S(=O)(=O)c1ccc(Cl)s1` [Example 23, 1-[(5-chlorothien-2-yl)sulfonyl]-3-piperidin-4-yl-1,3-dihydro-2H-benzimidazol-2-one], for which affinity was put at a Ki of 20 nM.

On to `O=c1n(C2=CCNCC2)c2ccccc2n1S(=O)(=O)c1cc(Cl)sc1Cl` [Example 43, 1-[(2,5-dichlorothien-3-yl)sulfonyl]-3-(1,2,3,6-tetrahydropyridin-4-yl)-1,3-dihydro-2H-benzimidazol-2-one], for which the Ki was 9 nM.

The molecule `O=c1n(C2=CCNCC2)c2ccccc2n1S(=O)(=O)c1ccc(Br)s1` [Example 41, 1-[(5-bromothien-2-yl)sulfonyl]-3-(1,2,3,6-tetrahydropyridin-4-yl)-1,3-dihydro-2H-benzimidazol-2-one] gave a Ki of 4 nM.

Take `O=c1n(C2=CCNCC2)c2ccccc2n1S(=O)(=O)c1cc(Cl)c(Cl)s1` [Example 42, 1-[(4,5-dichlorothien-2-yl)sulfonyl]-3-(1,2,3,6-tetrahydropyridin-4-yl)-1,3-dihydro-2H-benzimidazol-2-one]: the affinity, expressed as Ki, was 15 nM.

`O=c1n(C2CCNCC2)c2ccccc2n1S(=O)(=O)c1cc(Br)c(Br)s1` [Example 27, 1-[(4,5-dibromothien-2-yl)sulfonyl]-3-piperidin-4-yl-1,3-dihydro-2H-benzimidazol-2-one] showed a Ki of 27 nM.

For the molecule `O=c1n(C2=CCNCC2)c2ccccc2n1S(=O)(=O)c1ccc2ccccc2c1` [Example 39, 1-(2-naphthylsulfonyl)-3-(1,2,3,6-tetrahydropyridin-4-yl)-1,3-dihydro-2H-benzimidazol-2-one], the Ki worked out at 6 nM.

`O=c1n(C2CCNCC2)c2ccccc2n1S(=O)(=O)c1cc(Br)c(Cl)s1` [Example 29, 1-[(4-bromo-5-chlorothien-2-yl)sulfonyl]-3-piperidin-4-yl-1,3-dihydro-2H-benzimidazol-2-one] had a Ki of 20 nM.

`Cc1c(S(=O)(=O)n2c(=O)n(C3=CCNCC3)c3ccccc32)sc2ccc(Cl)cc12` [Example 48, 1-[(5-chloro-3-methyl-1-benzothien-2-yl)sulfonyl]-3-(1,2,3,6-tetrahydropyridin-4-yl)-1,3-dihydro-2H-benzimidazol-2-one]: affinity was put at a Ki of 49 nM.

Take `O=c1n(C2=CCNCC2)c2ccccc2n1S(=O)(=O)c1cc(Br)c(Cl)s1` [Example 46, 1-[(4-bromo-5-chlorothien-2-yl)sulfonyl]-3-(1,2,3,6-tetrahydropyridin-4-yl)-1,3-dihydro-2H-benzimidazol-2-one]: the Ki amounted to 9 nM.

The molecule `CN(C)CCn1c(=O)n(S(=O)(=O)c2ccc(Br)s2)c2ccccc21` [Example 10, 1-[(5-bromothien-2-yl)sulfonyl]-3-[2-(dimethylamino)ethyl]-1,3-dihydro-2H-benzimidazol-2-one] had an inhibition constant (Ki) of 40 nM. Compared with the last molecule, the Ki is about 4.4-fold higher.

Take `O=c1n(C2CCNCC2)c2ccccc2n1S(=O)(=O)c1ccc2ccccc2c1` [Example 22, 3-(Naphth-2-ylsulfonyl)-1-piperidin-4-yl-1,3-dihydrobenzimidazol-2-one]: the affinity, expressed as Ki, was 20 nM.

In the case of `O=c1n(C2=CCNCC2)c2ccccc2n1S(=O)(=O)c1c(Cl)nc2ccccn12` [Example 51, 1-[(2-chloroimidazo[1,2-a]pyridin-3-yl)sulfonyl]-3-(1,2,3,6-tetrahydropyridin-4-yl)-1,3-dihydro-2H-benzimidazol-2-one], the affinity, expressed as Ki, was 19 nM.
